According to patent publication US12320800B2, “High-throughput automation of organoids for identifying therapeutic strategies” (UNIVERSITY OF WASHINGTON, priority 2018, dated 2025):
“Also recorded” adds a separate entry of the source.

Key:
myosin = conditions: cited from earlier work; for effect: Table 5 listing
cell stiffness = conditions: cited from earlier work
[1] = tested on: PKD1−/− and PKD2−/− mutant organoids; experiment: Prophylactic effect of myosin activators on cyst formation in PKD organoids in suspension; type: cell-based, human
Description: (§1) Cyst formation. In adherent cultures (untreated), ‘cysts’ were identified as large, balloon-like, translucent structures that swayed in response to agitation. Flat rings and dilated tubules were not counted as cysts and occasionally appeared even in non-PKD controls. […] Wells were imaged using a Nikon TiE inverted wide-field microscope and cysts were quantified using ImageJ cell counter. To generate large cysts in suspension, adherent organoids were microdissected with a 23-gauge syringe needle from 24-well plates on an inverted phase-contrast microscope, and carefully transferred using a transfer pipette into a low-adhesion 6-well plate (Corning) containing 2 ml RB. The organoids were isolated on the twenty-first day of differentiation, before cysts formed. RB media was changed by gravity every three days, and cystogenesis was assessed at two weeks after replating.
EMD was efficient at rescuing cyst formation at the lowest dose tested (3 μM) and worked in both PKD1^−/− and PKD2^−/− mutant organoids.

[2] = tested on: PKD organoids (mutations in polycystin-1); experiment: Small-scale screen of PKD cystogenesis modifiers in 96-well organoid plates; type: cell-based, human; design: dose or concentration left out as unconfirmed; conditions: 7 days, blebbistatin at highest concentration
Experimental: (§2) Cyst generation. PKD1^−/− and PKD2^−/− hPSCs or isogenic controls were differentiated in microwell plates in adherent cultures. Forskolin (Sigma) was added to microwell plates during automated liquid handling on the 21st day after differentiation. Large swellings rapidly developed and grew to full size over 72 hours. Cysts were identified by comparing images with captured with high-content imaging prior to forskolin treatment, and after 72 hours. Screening of PKD cystogenesis was performed in duplicate in 96-well plates to provide sufficient space and numbers of organoids per well. Factors were plated at four different concentrations for seven days, and the organoids were scanned visually on a phase-contrast microscope for increased or decreased cyst formation. […] Cyst diameters were measured using NIS Elements imaging software (Nikon). […]

[3] = tested on: control organoids of identical genetic background that lacked PKD mutations; experiment: Blebbistatin cystogenesis in suspension culture, control organoids; type: cell-based, human; conditions: 3 days after treatment
Experimental: as §2, with “PKD1^−/− and PKD2^−/− hPSCs or isogenic controls were differentiated in microwell plates in adherent cultures.” left out

PKD organoids = experiment: Blebbistatin cystogenesis in suspension culture, PKD organoids; type: cell-based, human; design: time after which PKD organoids formed cysts: dose or concentration left out as unconfirmed
Experimental: Cyst generation. […] Forskolin (Sigma) was added to microwell plates during automated liquid handling on the 21st day after differentiation. Large swellings rapidly developed and grew to full size over 72 hours. Cysts were identified by comparing images with captured with high-content imaging prior to forskolin treatment, and after 72 hours. Screening of PKD cystogenesis was performed in duplicate in 96-well plates to provide sufficient space and numbers of organoids per well. Factors were plated at four different concentrations for seven days, and the organoids were scanned visually on a phase-contrast microscope for increased or decreased cyst formation. […] To test cystogenesis in suspension, adherent organoids were microdissected with a 23-gauge syringe needle from 24-well plates on an inverted phase-contrast microscope, and transferred into a low-adhesion 6-well plate (Corning) containing 2 mL RB or 2 mL RB with […] blebbistatin. Organoids were imaged daily on a Nikon Ti Inverted Widefield microscope for a period of 7 days. Cyst diameters were measured using NIS Elements imaging software (Nikon). Contiguous microscopic fields were collected using an automated stage and stitched together using NIS Elements software to generate large images of wells or plates.

[4] = tested on: Polycystic Kidney Disease (PKD) patients; conditions: cited from earlier work
[5] = tested on: endothelial cells (ECs) in kidney organoid cultures
Experimental: Kidney differentiation in microwell plates. hPSCs were dissociated with Accutase (Stem Cell Technologies) and plated onto microwell plates pre-coated with GelTrex in mTeSR1 supplemented with 10 mMRho-kinase inhibitor Y27632 (StemGent). The media was replaced with mTeSR1+1.5% GelTrex at 16 hours, 12 mMCHIR99021 in Advanced RPMI+Glutamax (Life Technologies) at 60 hours, and RB (Advanced RPMI+Glutamax+B27 Supplement, from Life Technologies) at 96 hours. […] RB was changed two days later and every three days thereafter. For experiments involving modulation of endothelial cell media was supplemented with VEGF165 (Peprotech, 12.5 to 200 ng/ml). Alternatively (Protocol B, FIG. 31A), the protocol described by Takasato et al. was adapted for adherent culture: undifferentiated hPSCs were plated overnight and treated the following morning with 8 mM CHIR99021 in APEL media (StemCell Technologies) for 48-72 hr, 30 ng/ml FGF9 (Peprotech)+1 mg/ml heparin (StemCellTechnologies) in APEL for 96 hr, and cultured thereafter in APEL, replaced every three days. Alternatively, to generate endothelial cells without kidney organoids, 100,000 hPSCs/cm2 were plated in mTeSR1+10 mM Y27632+1 mM CHIR99021, replaced with RPMI+B27 minus insulin+1.5% Geltrex+50 ng/mL Activin A (R&D) at 24 h, RPMI+B27 minus insulin+40 ng/mL BMP4 (Peprotech)+1 mL CHIR99021 at 61 h, and StemPro 34 (Thermo Fisher Scientific)+2 mM Glutamax+50 mg/mL ascorbic acid (Sigma)+10 ng/mL BMP4+5 ng/mL bFGF (Peprotech)+300 ng/mL VEGF165 at 85 h for a 72-hour incubation.
Immunohistochemistry. For confocal microscopy, kidney organoids were differentiated on 96-well No, 1.5 coverslip glass-bottom plates (Mat-Tek). To fix, an equal volume of 8% paraformaldehyde (Electron Microscopy Sciences) was added to the culture media (4% final concentration) for 15 minutes at room temperature. […] Fluorescence images were captured using an inverted Nikon epifluorescence Eclipse Ti or A1R confocal microscope. […]

[6] = tested on: PKD organoids or isogenic controls; experiment: Cyst formation in adherent kidney organoids treated with forskolin or 8-Br-cAMP; type: cell-based, human
Description: as §1

[7] = scRNA-seq, in the presence of VEGF

CCCCC[C@H](O)/C=C/[C@@H]1[C@@H](C/C=C\CCCC(=O)O)[C@H]2CO[C@@H]1C2 [U46619]
effect (myosin): ↑ Rho-kinase

CC(=O)c1ccc(O)cc1 [4-HAP, 4-hydroxyacetophenone]
effect (myosin): ↑ myosin IIB, IIC | myosin II paralogs affected (myosin): specifically affect non-muscle myosins IIB and IIC, but not IIA | concentration range showing effects on cell stiffness (cell stiffness): 5 to 50 µM | effect on PKD organoid cysts [1]: less activity than EMD | effect on cyst growth in PKD1−/− organoids ([1]; 300 μM (FIG. 22)): Positive effects

N#C/C(=C\c1cc(O)c(O)c(O)c1)C(=O)NCCCNC(=O)/C(C#N)=C/c1cc(O)c(O)c(O)c1 [Bis-T-23]
effect (myosin): ↑ actin polymerization

Cc1ccc2c(c1)C(=O)C1(O)CCN(c3ccccc3)C1=N2 (stereo not shown) [blebbistatin]
change in cyst formation [2]: significant increase in cyst formation | increase in rate of cystogenesis [3]: 10% | diameter and number of cysts (PKD organoids; 7 days of treatment, suspension): Both the diameter and number of cysts were increased | increase in rate of cystogenesis (PKD organoids; PKD organoids, suspension, 3 days after treatment): 40% | damage to organoids (PKD organoids; at this concentration and time frame): no damage to organoids was observed | time after which PKD organoids formed cysts (PKD organoids; suspension culture, blebbistatin): 24 h | cyst size after removal of blebbistatin (PKD organoids; washout after 7 days of treatment): cyst size declined

Cc1ccccc1C(=O)Nc1ccc(C(=O)N2CCCC(O)c3cc(Cl)ccc32)c(C)c1 (stereo not shown) [Tolvaptan]
effect on PKD cysts (shrinking / prevention) ([4]; PKD patients): does not shrink PKD cysts or prevent them from forming | improve glomerular filtration rate (GFR) ([4]; PKD patients): ~1.5 ml/min/yr | side effects ([4]; PKD patients): can damage the liver; also recorded: frequent thirst and occasional severe hepatotoxicity | slow the growth of total kidney volume (TKV) ([4]; PKD patients): ~3 %/yr | effect on PKD, cyst growth ([4]; patients with severe disease): 3 % year

CCCC[C@@H](C=O)NC(=O)[C@H](CC(C)C)NC(=O)OCc1ccccc1 [calpeptin]
effect (myosin): ↑ Rho-kinase

VEGF
increase in ECs expressing CD31 and VE-cadherin ([5]; VEGF added during differentiation, immunofluorescence): approximately 10 fold | MCAM+ cells, share of all cells [5, 7]: 5% | MCAM+ cells, share of cells within the six kidney clusters [5, 7]: 9.5%

O=S(=O)(NCCNC/C=C/c1ccc(Br)cc1)c1cccc2cnccc12 [H-89]
effect (myosin): ↓ PKA

Nc1ncnc2c1nc(Br)n2[C@@H]1O[C@@H]2COP(=O)(O)O[C@H]2[C@H]1O [8-Br-cAMP]
doses that did not produce cysts ([6]; PKD or control organoids, adherent): < 1 mM | swelling of adherent organoids into cyst-like structures ([6]; adherent cultures, added on day 21 of differentiation): induced swelling, although the effect was much less pronounced

CNc1ccc2oc(C[C@H]3O[C@@]4(CC[C@H]3C)O[C@H]([C@H](C)C(=O)c3ccc[nH]3)[C@H](C)C[C@H]4C)nc2c1C(=O)O [calcium ionophore]
effect (myosin): ↑ calmodulin

C[C@@H](O)[C@@H]1NC(=O)[C@H](CCCCN)NC(=O)[C@@H](Cc2c[nH]c3ccccc23)NC(=O)[C@H](Cc2ccccc2)NC(=O)[C@@H](NC(=O)[C@H](N)Cc2ccccc2)CSSC[C@@H](C(=O)N[C@H](CO)[C@@H](C)O)NC1=O [octreotide]
effect on PKD organoid cysts [1]: the same effect is not seem; also recorded: do not affect PKD cysts

COC(=O)N1CCN(Cc2cccc(NC(=O)Nc3ccc(C)nc3)c2F)CC1 [omecamtiv mercabil]
effect (myosin): ↑ cardiac myosin S1 | effect on PKD organoid cysts [1]: the same effect is not seem; also recorded: do not affect PKD cysts | effect on cyst growth in PKD1−/− organoids ([1]; 20 μM, highest dose tried (FIG. 22)): ineffective at the highest dose that was tried
